Source: PubChem BioAssay AID248 (DTP/NCI, 2004)
Values joined by “and” are separate entries in the source; they are usually repeats but may differ in a detail not shown here. Identical values can stand only once. Toxic doses and inconclusive results are not listed. Rule as the data show it: active = T/C of 150% or more; inactive = T/C below 125%.

System: L1210 leukemia ip in BDF1 mice, survival T/C
Assay: NCI In Vivo Anticancer Drug Screen. Data for tumor model L1210 Leukemia (intraperitoneal) in B6D2F1 (BDF1) mice
Settings: higher = longer survival
Method in brief: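 Mice bearing the transplanted tumor received compound or vehicle. Survival of the treated group was divided by that of the vehicle-treated control group to give the ratio.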

Measured: T/C

O=c1[nH]cc(F)c(=O)[nH]1
inactive: endpoint: mean survival time, dose: 0.06 mg/kg/injection, schedule: Q#A X Z (ip), vehicle: carboxymethylcellulose (CMC) 103 % of control | endpoint: mean survival time, dose: 0.12 mg/kg/injection, schedule: Q#A X Z (ip), vehicle: carboxymethylcellulose (CMC) 108 % of control | endpoint: mean survival time, dose: 0.25 mg/kg/injection, schedule: Q#A X Z (ip), vehicle: carboxymethylcellulose (CMC) 106 % of control | endpoint: mean survival time, dose: 0.5 mg/kg/injection, schedule: Q#A X Z (ip), vehicle: carboxymethylcellulose (CMC) 112 % of control | endpoint: mean survival time, dose: 0.63 mg/kg/injection, schedule: Q01DX015 (ip), vehicle: water 100 % of control | endpoint: mean survival time, dose: 0.75 mg/kg/injection, schedule: Q03DX006 (ip), vehicle: carboxymethylcellulose (CMC) 105 % of control | endpoint: mean survival time, dose: 1.0 mg/kg/injection, schedule: Q01DX009 (ip), vehicle: other 105 % of control | endpoint: mean survival time, dose: 1.4 mg/kg/injection, schedule: Q01DX Z (ip), vehicle: saline 109 % of control | endpoint: mean survival time, dose: 2.0 mg/kg/injection, schedule: Q01DX005 (iv), vehicle: carboxymethylcellulose (CMC) 108 % of control | endpoint: mean survival time, dose: 2.0 mg/kg/injection, schedule: Q01DX Z (im), vehicle: carboxymethylcellulose (CMC) 108 % of control | endpoint: mean survival time, dose: 2.0 mg/kg/injection, schedule: Q01DX Z (ip), vehicle: carboxymethylcellulose (CMC) 108 % of control | endpoint: mean survival time, dose: 2.5 mg/kg/injection, schedule: Q01DX015 (ip), vehicle: water 107 % of control | endpoint: mean survival time, dose: 4.0 mg/kg/injection, schedule: Q01DX005 (iv), vehicle: carboxymethylcellulose (CMC) 111 % of control | endpoint: mean survival time, dose: 4.8 mg/kg/injection, schedule: Q04DX002 (ip), vehicle: saline 93 % of control and 101 % of control | endpoint: mean survival time, dose: 5.0 mg/kg/injection, schedule: Q01DX006 (ip), vehicle: saline 110 % of control | endpoint: mean survival time, dose: 5.0 mg/kg/injection, schedule: Q01DX010 (ip), vehicle: saline 107 % of control | endpoint: mean survival time, dose: 8.0 mg/kg/injection, schedule: Q01DX005 (iv), vehicle: carboxymethylcellulose (CMC) 108 % of control | endpoint: mean survival time, dose: 8.4 mg/kg/injection, schedule: Q01DX009 (ip), vehicle: saline 102 % of control | endpoint: mean survival time, dose: 8.4 mg/kg/injection, schedule: Q01DX Z (ip), vehicle: saline 102 % of control | endpoint: mean survival time, dose: 9.5 mg/kg/injection, schedule: Q04DX002 (ip), vehicle: saline 101 % of control and 102 % of control | endpoint: mean survival time, dose: 10.0 mg/kg/injection, schedule: Q01DX009 (oral), vehicle: saline 111 % of control | endpoint: mean survival time, dose: 12.5 mg/kg/injection, schedule: Q04DX003 (ip), vehicle: saline 98 % of control | endpoint: mean survival time, dose: 13.3 mg/kg/injection, schedule: Q04DX003 (ip), vehicle: saline 110 % of control | endpoint: mean survival time, dose: 16.0 mg/kg/injection, schedule: Q#A X Z (ip), vehicle: carboxymethylcellulose (CMC) 108 % of control | endpoint: mean survival time, dose: 19.0 mg/kg/injection, schedule: Q04DX002 (ip), vehicle: saline 101 % of control | endpoint: mean survival time, dose: 27.5 mg/kg/injection, schedule: Q01DX012 (sc), vehicle: other 110 % of control | endpoint: mean survival time, dose: 30.0 mg/kg/injection, schedule: Q01DX009 (ip), vehicle: none 109 % of control | endpoint: mean survival time, dose: 30.0 mg/kg/injection, schedule: Q01DX009 (ip), vehicle: saline 101 % of control and 109 % of control | endpoint: mean survival time, dose: 30.0 mg/kg/injection, schedule: Q01DX Z (ip), vehicle: saline 97 % of control | endpoint: mean survival time, dose: 30.0 mg/kg/injection, schedule: Q## X Z (ip), vehicle: saline 98 % of control | endpoint: mean survival time, dose: 39.0 mg/kg/injection, schedule: Q01DX009 (ip), vehicle: saline 109 % of control | endpoint: mean survival time, dose: 39.0 mg/kg/injection, schedule: Q01DX Z (ip), vehicle: saline 96 % of control and 109 % of control | endpoint: mean survival time, dose: 40.0 mg/kg/injection, schedule: Q01DX010 (ip), vehicle: saline 100 % of control | endpoint: mean survival time, dose: 40.0 mg/kg/injection, schedule: Q01DX Z (ip), vehicle: methylcellulose (MC) 103 % of control | endpoint: mean survival time, dose: 45.0 mg/kg/injection, schedule: Q## X006 (ip), vehicle: saline 95 % of control | endpoint: mean survival time, dose: 50.0 mg/kg/injection, schedule: Q01DX Z (ip), vehicle: methylcellulose (MC) 94 % of control | endpoint: mean survival time, dose: 52.0 mg/kg/injection, schedule: Q01DX009 (ip), vehicle: saline 111 % of control | endpoint: mean survival time, dose: 64.0 mg/kg/injection, schedule: Q01DX Z (im), vehicle: carboxymethylcellulose (CMC) 96 % of control | endpoint: mean survival time, dose: 64.0 mg/kg/injection, schedule: Q01DX Z (oral), vehicle: carboxymethylcellulose (CMC) 94 % of control | endpoint: mean survival time, dose: 64.0 mg/kg/injection, schedule: Q01DX Z (sc), vehicle: carboxymethylcellulose (CMC) 105 % of control | endpoint: mean survival time, dose: 65.0 mg/kg/injection, schedule: Q01DX009 (ip), vehicle: saline 93 % of control | endpoint: mean survival time, dose: 67.0 mg/kg/injection, schedule: Q02DX010 (ip), vehicle: other 102 % of control | endpoint: mean survival time, dose: 67.1 mg/kg/injection, schedule: Q01DX005 (sc), vehicle: other 100 % of control | endpoint: mean survival time, dose: 68.0 mg/kg/injection, schedule: Q02DX010 (ip), vehicle: carboxymethylcellulose (CMC) 108 % of control | endpoint: mean survival time, dose: 68.0 mg/kg/injection, schedule: Q02DX010 (ip), vehicle: other 98 % of control | endpoint: mean survival time, dose: 80.0 mg/kg/injection, schedule: Q01DX005 (ip), vehicle: Klucel (hydroxypropylcellulose) (HPC) 97 % of control | endpoint: mean survival time, dose: 80.0 mg/kg/injection, schedule: Q01DX005 (ip), vehicle: acetone 100 % of control | endpoint: mean survival time, dose: 80.0 mg/kg/injection, schedule: Q01DX005 (ip), vehicle: other 100 % of control | endpoint: mean survival time, dose: 80.0 mg/kg/injection, schedule: Q01DX006 (ip), vehicle: saline 103 % of control | endpoint: mean survival time, dose: 80.0 mg/kg/injection, schedule: Q01DX009 (ip), vehicle: none 93 % of control | endpoint: mean survival time, dose: 80.0 mg/kg/injection, schedule: Q01DX009 (ip), vehicle: water 95 % of control | endpoint: mean survival time, dose: 80.0 mg/kg/injection, schedule: Q01DX009 (oral), vehicle: saline 103 % of control | endpoint: mean survival time, dose: 80.0 mg/kg/injection, schedule: Q01DX015 (ip), vehicle: saline 110 % of control | endpoint: mean survival time, dose: 80.0 mg/kg/injection, schedule: Q02DX005 (ip), vehicle: water 108 % of control | endpoint: mean survival time, dose: 90.0 mg/kg/injection, schedule: Q04DX004 (ip), vehicle: saline 98 % of control | endpoint: mean survival time, dose: 94.5 mg/kg/injection, schedule: Q02DX010 (ip), vehicle: carboxymethylcellulose (CMC) 109 % of control | endpoint: mean survival time, dose: 101.0 mg/kg/injection, schedule: Q02DX010 (ip), vehicle: carboxymethylcellulose (CMC) 95 % of control | endpoint: mean survival time, dose: 120.0 mg/kg/injection, schedule: Q01DX006 (ip), vehicle: saline 98 % of control | endpoint: mean survival time, dose: 120.0 mg/kg/injection, schedule: Q04DX003 (ip), vehicle: saline with Tween-80 93 % of control and 96 % of control and 102 % of control | endpoint: mean survival time, dose: 120.0 mg/kg/injection, schedule: Q## X004 (ip), vehicle: water 105 % of control | endpoint: mean survival time, dose: 128.0 mg/kg/injection, schedule: Q01DX005 (iv), vehicle: carboxymethylcellulose (CMC) 109 % of control | endpoint: mean survival time, dose: 164.0 mg/kg/injection, schedule: Q01DX002 (sc), vehicle: other 95 % of control | endpoint: mean survival time, dose: 177.6 mg/kg/injection, schedule: Q01DX001 (ip), vehicle: carboxymethylcellulose (CMC) 111 % of control | endpoint: mean survival time, dose: 180.0 mg/kg/injection, schedule: Q## X004 (ip), vehicle: water 107 % of control | endpoint: mean survival time, dose: 200.0 mg/kg/injection, schedule: Q02DX005 (ip), vehicle: saline 96 % of control | endpoint: mean survival time, dose: 200.0 mg/kg/injection, schedule: Q04DX002 (ip), vehicle: saline 110 % of control | endpoint: mean survival time, dose: 256.0 mg/kg/injection, schedule: Q01DX001 (sc), vehicle: other 101 % of control | endpoint: mean survival time, dose: 256.0 mg/kg/injection, schedule: Q01DX005 (iv), vehicle: carboxymethylcellulose (CMC) 103 % of control | endpoint: mean survival time, dose: 300.0 mg/kg/injection, schedule: Q01DX001 (ip), vehicle: Klucel (hydroxypropylcellulose) (HPC) 104 % of control | endpoint: mean survival time, dose: 320.0 mg/kg/injection, schedule: Q01DX009 (ip), vehicle: saline 94 % of control | endpoint: mean survival time, dose: 400.0 mg/kg/injection, schedule: Q04DX003 (ip), vehicle: saline 97 % of control | endpoint: mean survival time, dose: 400.0 mg/kg/injection, schedule: Q## X004 (ip), vehicle: alkali diluted with saline 109 % of control | endpoint: mean survival time, dose: 600.0 mg/kg/injection, schedule: Q01DX001 (ip), vehicle: carboxymethylcellulose (CMC) 106 % of control | endpoint: mean survival time, dose: 900.0 mg/kg/injection, schedule: Q01DX001 (ip), vehicle: water 101 % of control | endpoint: mean survival time, dose: 900.0 mg/kg/injection, schedule: Q## X004 (ip), vehicle: alkali diluted with saline 104 % of control | endpoint: median survival time, dose: 4.0 mg/kg/injection, schedule: Q01DX009 (ip), vehicle: saline 98 % of control and 100 % of control | endpoint: median survival time, dose: 8.0 mg/kg/injection, schedule: Q01DX009 (ip), vehicle: saline 98 % of control and 100 % of control | endpoint: median survival time, dose: 16.0 mg/kg/injection, schedule: Q01DX009 (ip), vehicle: saline 100 % of control and 102 % of control | endpoint: median survival time, dose: 23.0 mg/kg/injection, schedule: Q04DX003 (oral), vehicle: saline 106 % of control | endpoint: median survival time, dose: 65.0 mg/kg/injection, schedule: Q01DX005 (ip), vehicle: saline 98 % of control | endpoint: median survival time, dose: 65.0 mg/kg/injection, schedule: Q01DX009 (ip), vehicle: saline 106 % of control | endpoint: median survival time, dose: 75.0 mg/kg/injection, schedule: Q01DX001 (ip), vehicle: saline 109 % of control | endpoint: median survival time, dose: 300.0 mg/kg/injection, schedule: Q01DX001 (ip), vehicle: alkali diluted with saline 97 % of control | endpoint: median survival time, dose: 300.0 mg/kg/injection, schedule: Q04DX003 (oral), vehicle: saline 102 % of control | endpoint: median survival time, dose: 300.0 mg/kg/injection, schedule: Q04DX003 (sc), vehicle: saline 105 % of control | endpoint: median survival time, dose: 500.0 mg/kg/injection, schedule: Q04DX003 (oral), vehicle: saline 108 % of control | endpoint: median survival time, dose: 600.0 mg/kg/injection, schedule: Q01DX001 (ip), vehicle: alkali diluted with saline 101 % of control
